In experiment [1] the target is T1, DmOctR (Drosophila octopamine receptor), cloned α-like OctR (Drosophila melanogaster, UniProt Q7JQF1).
T1 construct: Gq calcium readout
T1 sequence (Q7JQF1 1-645): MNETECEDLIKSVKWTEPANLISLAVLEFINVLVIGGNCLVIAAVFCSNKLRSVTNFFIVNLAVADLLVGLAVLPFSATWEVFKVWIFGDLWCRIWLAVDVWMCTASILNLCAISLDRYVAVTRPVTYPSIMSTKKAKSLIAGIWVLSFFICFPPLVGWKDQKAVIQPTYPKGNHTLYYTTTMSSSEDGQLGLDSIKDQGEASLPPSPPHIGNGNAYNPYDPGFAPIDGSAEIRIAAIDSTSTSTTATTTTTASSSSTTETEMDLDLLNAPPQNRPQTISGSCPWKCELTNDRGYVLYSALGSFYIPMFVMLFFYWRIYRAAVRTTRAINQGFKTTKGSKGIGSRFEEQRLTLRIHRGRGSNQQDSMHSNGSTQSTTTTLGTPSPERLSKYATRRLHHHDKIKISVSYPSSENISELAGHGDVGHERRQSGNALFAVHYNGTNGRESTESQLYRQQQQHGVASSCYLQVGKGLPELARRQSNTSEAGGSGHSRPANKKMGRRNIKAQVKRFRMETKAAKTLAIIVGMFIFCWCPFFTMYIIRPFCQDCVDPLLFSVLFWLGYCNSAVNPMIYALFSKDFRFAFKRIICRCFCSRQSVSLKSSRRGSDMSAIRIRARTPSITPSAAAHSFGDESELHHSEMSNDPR
As to the kind of experiment: OctR activation: change in intracellular calcium (CALCIUM 6QR dye, FlexStation 3) in stably transfected mammalian cells. It counts as cell-based. The conditions noted are these: agonist. The text has this:
(§1) Functional expression of cloned arthropod OctRs and human α2-ARs: The cDNAs for α-like OctRs from different arthropod species (e.g., Anopheles gambiae, Aedes aegypti, Periplaneta americana, Drosophila melanogaster, Ixodes scapularis, Balanus improvises) and for α2-AR subtypes from humans were individually subcloned into mammalian expression vectors. These plasmids, which harbor a resistance gene for the selection drug G418 and the cDNA sequence for the receptor of interest, were individually transfected into mammalian cells using a calcium phosphate precipitation method. G418 selection was then employed to generated stable clonal cell lines. Utilizing rapid filtration radioligand binding techniques, the cell surface density of receptor expression of the individual clonal cell lines was determined at equilibrium and those with similar high levels of expression were selected for further experiments. Briefly, binding conditions were 50 mM Tris binding buffer pH 7.4 at 25° C. and an ice-cold wash buffer 10 mM Tris-HCl, pH 7.4). The radioligand was [3H]rauwolscine and non-specific binding was determined in the presence of 10 μM atipamezole. Following the addition of membranes prepared from the clonal cell lines, samples were mixed and allowed 2 hr. to reach equilibrium before rapid filtration and washing through 0.3% PEI-treated GF/C filters. The radioactivity remaining on the filters was quantified by scintillation counting. Receptor density (Bmax) was back calculated knowing the specific activity of the radioligand and applying the equation for a square hyperbola model: Bmax=(Y·(KD+X))/X, where Y is [specifically bound radioligand] and X=[radio ligand concentration]. The affinity (KD) for the radioligand for each receptor was determined in separate saturation isotherm binding experiments using the same binding conditions as describe above.
(§2) Measurement of OctR activation by measuring changes in intracellular calcium: Activation of arthropod α-like OctRs increases intracellular calcium via a Gq-coupling mechanism. This involves activation of phospholipase C leading to an increase in intracellular inositol triphosphate (IP3) which then activates IP3-gated calcium channels in the endoplasmic reticulum causing a transient rise in intracellular calcium. These changes in intracellular calcium upon OctR activation were measured by loading cells with intracellular calcium sensitive dye CALCIUM 6QR and reading the change in calcium-induced fluorescent signal over time on a FlexStation 3 microplate reader.
(A change in cytosolic calcium serves as a functional read-out for many receptors and channels.)

Experiment [2] concerns the target T2, PaOctR (Periplaneta octopamine receptor), cloned α-like OctR (Periplaneta americana, UniProt Q7YWB7).
T2 construct: Gq calcium readout
T2 sequence (Q7YWB7 1-628): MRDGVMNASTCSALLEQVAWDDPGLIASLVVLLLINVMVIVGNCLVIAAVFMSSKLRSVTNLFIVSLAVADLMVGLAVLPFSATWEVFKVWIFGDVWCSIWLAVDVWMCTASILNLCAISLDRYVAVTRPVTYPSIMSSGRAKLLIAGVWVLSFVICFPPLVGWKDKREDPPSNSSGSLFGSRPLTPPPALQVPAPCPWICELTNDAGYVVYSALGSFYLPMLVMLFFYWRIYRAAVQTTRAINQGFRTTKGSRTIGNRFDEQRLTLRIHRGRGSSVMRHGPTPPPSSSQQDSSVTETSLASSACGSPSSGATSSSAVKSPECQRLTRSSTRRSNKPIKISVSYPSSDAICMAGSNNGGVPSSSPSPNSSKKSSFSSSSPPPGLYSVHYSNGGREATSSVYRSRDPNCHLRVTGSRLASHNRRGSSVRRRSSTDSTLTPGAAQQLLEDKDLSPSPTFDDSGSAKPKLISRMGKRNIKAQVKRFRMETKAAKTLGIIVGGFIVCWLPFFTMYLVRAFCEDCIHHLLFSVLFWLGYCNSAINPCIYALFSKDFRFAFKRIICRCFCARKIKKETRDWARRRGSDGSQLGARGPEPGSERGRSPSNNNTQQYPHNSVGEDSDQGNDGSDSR
Described as above. It counts as cell-based. The note with it: agonist.
Source text: as §1, §2

Experiment [3] has as its target T3, Hsα2A-AR (human α2A adrenergic receptor) (Homo sapiens, UniProt P08913).
T3 construct: expressed in transfected cells; membranes
As to the kind of experiment: [3H]rauwolscine competition radioligand binding, membranes of clonal mammalian cell lines. The note with it: 50 mM Tris pH 7.4, 25° C., 2 hr, Cheng-Prusoff.
Source text: as §1
(§3) Measurement of compound affinities by competition radioligand binding: Affinities (Ki) for compounds were determined by [3H]rauwolscine competition binding using the same binding conditions as described above. The Ki values were calculated from IC50 values using the Cheng-Prusoff equation.

Experiment [4] concerns the target T4, Hsα2C-AR (human α2C adrenergic receptor) (Homo sapiens, UniProt P18825).
T4 construct: expressed in transfected cells
T4 sequence (P18825 1-462): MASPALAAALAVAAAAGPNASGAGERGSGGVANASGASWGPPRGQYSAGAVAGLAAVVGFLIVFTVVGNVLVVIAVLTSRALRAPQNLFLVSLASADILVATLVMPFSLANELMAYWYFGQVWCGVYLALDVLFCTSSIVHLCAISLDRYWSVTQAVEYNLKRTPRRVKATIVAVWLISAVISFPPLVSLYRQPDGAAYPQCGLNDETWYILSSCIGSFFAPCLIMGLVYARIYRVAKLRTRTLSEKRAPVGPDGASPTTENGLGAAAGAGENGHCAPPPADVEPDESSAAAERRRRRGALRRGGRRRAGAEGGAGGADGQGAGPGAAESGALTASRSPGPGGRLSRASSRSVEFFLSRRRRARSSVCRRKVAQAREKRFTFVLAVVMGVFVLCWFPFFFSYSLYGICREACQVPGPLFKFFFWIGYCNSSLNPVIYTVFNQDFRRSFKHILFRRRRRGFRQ
Described as above. The note with it: 50 mM Tris pH 7.4, 25° C., 2 hr, Cheng-Prusoff.
Source text: as §1, §3

T3 sequence (P08913 whole entry): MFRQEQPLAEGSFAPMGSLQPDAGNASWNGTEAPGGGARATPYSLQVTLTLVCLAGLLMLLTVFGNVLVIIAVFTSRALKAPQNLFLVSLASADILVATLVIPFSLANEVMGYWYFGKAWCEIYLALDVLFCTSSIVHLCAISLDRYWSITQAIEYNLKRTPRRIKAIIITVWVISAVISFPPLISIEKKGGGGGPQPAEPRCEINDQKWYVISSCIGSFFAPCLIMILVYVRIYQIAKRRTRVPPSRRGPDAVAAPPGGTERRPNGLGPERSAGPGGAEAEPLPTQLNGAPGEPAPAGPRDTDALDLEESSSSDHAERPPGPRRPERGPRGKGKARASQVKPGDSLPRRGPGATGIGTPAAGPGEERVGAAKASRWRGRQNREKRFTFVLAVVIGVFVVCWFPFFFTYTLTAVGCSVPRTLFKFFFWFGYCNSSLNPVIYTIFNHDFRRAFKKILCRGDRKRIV

What is called EC50 is the concentration giving half of the maximal effect. Broadly, the Ki is the equilibrium dissociation constant of an inhibitor or competing ligand from its target. High values mean lower affinity, low ones higher affinity. For `C=C(c1cnc[nH]1)c1cccc(C)c1C` [AZ0027], the EC50 in experiment [1] was 8.7 ± 2.7 nM; in experiment [2], 0.44 ± 0.23 nM. Moreover, the figures for the Ki in experiment [3] and in experiment [4] were 109 ± 16 nM and 231 ± 46 nM, respectively.

These data come from patent US10766866B2, “Deterrents for arthropods and marine organisms” (priority 2017, dated 2020).
